Results taken from patent publication US20170080049A1, “MEDICINE AGAINST GROWTH FAILURE INDUCED BY ADMINISTRATION OF STEROID” (DAIICHI SANKYO COMPANY, LIMITED, priority 2014, published 2017).

Assays:
Type in all cases: in vivo
male Crl: CD (SD) rat = assay: Preparation of dexamethasone-induced growth failure model rat (Example 1); conditions: continuous s.c. dexamethasone 0.5 or 1 mg/mL, 28 days
Method: Osmotic pumps (MINI-OSMOTIC PUMP Model 2004, available from DURECT CORPORATION, flow rate: 0.25 μL/hr, for 28 days) were charged with dexamethasone (dexamethasone injection “KS”, available from Kyoritsuseiyaku Corporation) having a concentration of 0.5 mg/mL (Group 2) or 1 mg/mL (Group 3), and one osmotic pump was embedded in the hypoderm of the back of each 7-week-old male Crl: CD (SD) rat (5 animals/group, a total of 10 animals). Additionally, in a control group (Group 1, 5 animals), one osmotic pump (the same as above) charged with saline was embedded in the hypoderm of the back of each animal. Then the animals were fed for 28 days, and their bodyweight was measured twice or three times a week. On the final day, after blood collection under isoflurane anesthesia followed by immediate euthanasia, the right femur was extracted, and the length was measured. Plasma was separated from the collected blood, and cholesterol concentration was determined by using cholesterol E-Test Wako (available from Wako Pure Chemical Industries, Ltd.), and the plasma corticosterone concentration was determined by using a Corticosterone, ELISA Kit, AssayMax (96 well) (EC3001-1, available from ASSAYPRO LLC.).

[1] = test system: dexamethasone-induced rat growth failure model; assay: Combined administration study of human-type CNP-53 or various CNP derivatives in dexamethasone-induced rat growth failure model (Example 3); conditions: dexamethasone 0.67 mg/mL pump alone or combined with 15 mg/mL pump of the CNP peptide, 5-week-old male Wistar rat, n=5
Method: Osmotic pumps (MINI-OSMOTIC PUMP Model 2004, available from DURECT CORPORATION, flow rate: 0.25 μL/hr, for 28 days) were charged with 0.67 mg/mL solution of dexamethasone (dexamethasone injection “KS”, available from Kyoritsuseiyaku Corporation) and one osmotic pump was embedded in the hypoderm of the back of each 5-week-old male Crlj:WI (Wistar) rat (5 animals/group, Groups 2 to 6, a total of 25 animals). At the same time, one osmotic pump (the same as above) charged with a 15 mg/mL solution of CNP derivative (A) in Group 3, human-type CNP-53 in Group 4, CNP derivative (B) in Group 5 and CNP derivative (C) in Group 6 was embedded in the hypoderm of the back simultaneously. No substance was administered to the normal control group (Group 1, 5 animals). Then the animals were fed for 28 days, and transitions of the body weight, the body length and the tail length were measured. On the final day, the blood was collected from the abdominal aorta and the animals were caused to die under isoflurane anesthesia, and plasma was separated from the collected blood and the cholesterol concentration was determined by using a “LabAssay (trademark) cholesterol” (available from Wako Pure Chemical Industries, Ltd.). After collecting the blood and causing the animals to die, the right femur and thymus were extracted, and the length of the right femur and the weight of the thymus were measured.

[2] = test system: rat growth failure induced by dexamethasone; assay: Follow-up administration test of CNP derivative (A) for rat growth failure induced by dexamethasone (Example 4); conditions: n=5
Method: Osmotic pumps (MINI-OSMOTIC PUMP Model 2004, available from DURECT CORPORATION, flow rate: 0.25 μL/hr, for 28 days) were charged with a 0.67 mg/mL solution of dexamethasone (dexamethasone injection “KS”, available from Kyoritsuseiyaku Corporation), and one osmotic pump was embedded in the hypoderm of the back of each 4-week-old male Crlj:WI (Wistar) rat (5 animals/group, Group 2 and Group 3), and the animals were fed for 14 days. […] During the feeding period, transitions of the body weight, the body length and the tail length were measured, and on the final day, blood was collected from the abdominal aorta and the animal was caused to die under isoflurane anesthesia, the right femur was extracted and its length was measured.

[3] = test system: rat growth failure induced by dexamethasone; assay: Action comparing study between CNP derivative (A) and human growth hormone on rat growth failure induced by dexamethasone (Example 6); conditions: 2 mL/kg s.c. once a day 28 days, n=4 or 5
Method: Osmotic pumps (MINI-OSMOTIC PUMP Model 2004, available from DURECT CORPORATION, flow rate: 0.25 μL/hr, for 28 days) were charged with a 0.67 mg/mL solution of dexamethasone (dexamethasone injection “KS”, available from Kyoritsuseiyaku Corporation), and one osmotic pump was embedded in the hypoderm of the back of each 4-week-old male Crlj:WI (Wistar) rat (5 animals/group, Group 2 to Group 4, total of 15 animals). For Group 3, a 1 mg/mL solution of CNP derivative (A) (medium: 0.03 mol/L acetate buffer (pH 4.0)/1% benzyl alcohol/10% sucrose), and for Group 4, a 1 mg/mL solution of human-type growth hormone preparation (somatropin BS subcutaneous injection 10 mg “SANDOZ”) diluted with a phosphate buffer was administered to the hypoderm of the back of five rats, respectively, in a volume of 2 mL/kg once a day for 28 days. No substance was administered to the normal control group (5 animals, Group 1). On the final day, after measuring the body weight, the body length and the tail length, the blood was collected from the abdominal aorta and the animal was caused to die under isoflurane anesthesia, the left femur was extracted and the bone length was measured, and then a histopathological specimen of the epiphyseal region was prepared.

[4] = dexamethasone 0.67 mg/mL pump alone or with CNP derivative (A) 15 mg/mL pump for 28 days from Day 14
[5] = dexamethasone 0.67 mg/mL pump, 4-week-old male Wistar rat, baseline before CNP derivative (A)
[6] = dexamethasone 0.67 mg/mL pump alone or with CNP derivative (A) or human-type growth hormone 1 mg/mL

Q: How did the “body weight (in words)” value (male Crl: CD (SD) rat; SD rat (FIG. 1)) turn out when `C[C@@H]1C[C@H]2[C@@H]3CCC4=CC(=O)C=C[C@]4(C)[C@@]3(F)[C@@H](O)C[C@]2(C)[C@@]1(O)C(=O)CO` [Dexamethasone, dexamethasone] was run?
A: decreased dose-dependently

Q: And the “femur length (in words)” value (male Crl: CD (SD) rat; SD rat (FIG. 2))?
A: shortened dose-dependently

Q: And the “Body weight at dissection” value ([1]; 0.25 μL/hr continuous s.c. 28 days, mean ± SD)?
A: 286 ± 17 g

Q: And the “Body length at dissection” value ([1]; continuous s.c. 28 days)?
A: 199 ± 2 mm

Q: What about the “Body length, variation from preadministration value (Δ value)” value ([1]; continuous s.c. 28 days) of the same compound?
A: (23.8 ± 2.4) mm

Q: And the “Body weight, variation from preadministration value (Δ value)” value ([1]; continuous s.c. 28 days)?
A: (118 ± 15) g

Q: What about the “Right femur length at dissection” value ([1]; continuous s.c. 28 days) of the same compound?
A: 32.7 ± 0.3 mm

Q: What about the “Tail length at dissection” value ([1]; continuous s.c. 28 days) of the same compound?
A: 202 ± 3 mm

Q: What about the “Tail length, variation from preadministration value (Δ value)” value ([1]; continuous s.c. 28 days) of the same compound?
A: (35.2 ± 3.7) mm

Q: And the “thymus body weight ratio” value ([1]; continuous s.c. 28 days)?
A: [0.11 ± 0.02%]

Q: What about the “thymus weight at dissection” value ([1]; continuous s.c. 28 days) of the same compound?
A: 0.36 ± 0.04 g

Q: What about the “Body weight at dissection (Day 28 of CNP derivative (A) administration)” value ([2]; dexamethasone 0.67 mg/mL pump 28 days alone or with CNP derivative (A) 15 mg/mL pump for 28 days from Day 14, male Wistar rat) of the same compound?
A: 308 ± 20 g

Q: And the “Body length at dissection (Day 28 of CNP derivative (A) administration)” value [2, 4]?
A: 204 ± 3 mm

Q: And the “Body length variation (Δ value) from starting of administration of CNP derivative (A)” value [2, 4]?
A: (30 ± 1) mm

Q: What about the “Body weight variation (Δ value) from starting of administration of CNP derivative (A)” value [2, 4] of the same compound?
A: (129 ± 9) g

Q: What about the “Right femur length only at dissection” value [2, 4] of the same compound?
A: 32.9 ± 0.7 mm

Q: And the “Tail length at dissection (Day 28 of CNP derivative (A) administration)” value [2, 4]?
A: 202 ± 8 mm

Q: What about the “Tail length variation (Δ value) from starting of administration of CNP derivative (A)” value [2, 4] of the same compound?
A: (25 ± 7) mm

Q: What about the “Body weight, Day 14 of dexamethasone administration (prior to administration of CNP derivative (A))” value ([2]; dexamethasone 0.67 mg/mL pump, 4-week-old male Wistar rat, baseline before CNP derivative (A), mean ± SD) of the same compound?
A: 179 ± 12 g

Q: And the “Body length, Day 14 of dexamethasone administration (prior to administration of CNP derivative (A))” value [2, 5]?
A: 174 ± 4 mm

Q: What about the “Tail length, Day 14 of dexamethasone administration (prior to administration of CNP derivative (A))” value [2, 5] of the same compound?
A: 177 ± 7 mm

Q: And the “Body weight at dissection” value ([3]; dexamethasone 0.67 mg/mL pump 28 days alone or with CNP derivative (A) or human-type growth hormone 1 mg/mL, 4-week-old male Wistar rat, mean ± SD)?
A: 245 ± 12 g

Q: And the “Body length at dissection” value [3, 6]?
A: 199 ± 4 mm

Q: And the “Body length, variation from pre-administration value (Δ value)” value [3, 6]?
A: (46.8 ± 4.7) mm

Q: What about the “Body weight, variation from pre-administration value (Δ value)” value [3, 6] of the same compound?
A: (139 ± 13) g

Q: And the “Left femur length at dissection” value [3, 6]?
A: 31.3 ± 0.2 mm

Q: And the “Tail length at dissection” value [3, 6]?
A: 197 ± 5 mm

Q: And the “Tail length, variation from pre-administration value (Δ value)” value [3, 6]?
A: (65.0 ± 4.9) mm
